Among the data in US20240091295A1, “PIPER NIGRUM COMPOSITION AND METHOD OF TREATING PAIN” (priority 2022, published 2024) are writhing inhibition values, retold here.

For this experiment, the system named is mice. Nature of the experiment: Acetic acid-induced writhing test. Format: in vivo. To be noted: 30 mg/kg i.p., vs control group. The method, then: Male Balb/c mice procured from the authorized animal supplier Biogen Laboratory Animal Facility, Bangalore, India were used for the animal experiments. The animals were housed in the animal facility of R&D Center, Vidya Herbs Pvt Ltd under controlled environmental conditions (temperature: 23±2° C., relative humidity: 35-50%, 12 h light/dark cycle). The animals were given commercial pellet diet and water ad libitum. All the animals were allowed to acclimatize to the environmental conditions before the start of experiments. The experimental protocols were approved by the Institutional Animal Ethics Committee (IAEC) of Vidya Herbs Pvt Ltd., Bangalore, India (VHPL/PCL/IAEC/01/2021).
Twenty-four male mice were randomized to four groups (n=6 in each group): Control group were given normal saline solution while positive control group received reference drug Diclofenac sodium (30 mg/kg). Two test doses of the inventive composition (25 and 50 mg/kg body weight) were used in the test. All the treatments were intraperitoneally injected. 30 min after the respective treatments, the animals were given 10 mL/kg body weight of 1% acetic acid intraperitoneally. The number of writhes were recorded after 10 min of acetic acid administration.
All the experimental data were analyzed by one way ANOVA followed by Tukey's multiple comparison test using GraphPad Prism 9.0 (GraphPad Software, Inc.). […]
On the technique in general: Writhing tests count abdominal constrictions after an irritant is injected.

Molecules are shown by their SMILES.

With `O=C(O)Cc1ccccc1Nc1c(Cl)cccc1Cl` [diclofenac sodium, Diclofenac sodium], the writhing inhibition is recorded as 86.55%.
